Results: ChEMBL document CHEMBL3425473, “Synthesis and biological evaluation of boswellic acid-NSAID hybrid molecules as anti-inflammatory and anti-arthritic agents” (Eur J Med Chem, 2015)
Activity calls are given as the source filed them. The rule behind the calls is not given here.

Assays:
[1] = Cytotoxicity against human SW982 cells after 24 hrs by MTT assay; assay type: cell-based; conditions: read-out: LD50
[2] = target: T1, Prostaglandin G/H synthase 2 (Homo sapiens) (UniProt P35354); test: Inhibition of IL-1 beta-induced COX-2 activity in human SW982 cells assessed as enzyme activity at LD50 treated for 24 hrs prior to incubation with IL-1 beta for 6 hrs (reference value: 100.0%); assay type: cell-based; design: scale not given: the % may be the effect or the level left
T1 sequence (whole entry): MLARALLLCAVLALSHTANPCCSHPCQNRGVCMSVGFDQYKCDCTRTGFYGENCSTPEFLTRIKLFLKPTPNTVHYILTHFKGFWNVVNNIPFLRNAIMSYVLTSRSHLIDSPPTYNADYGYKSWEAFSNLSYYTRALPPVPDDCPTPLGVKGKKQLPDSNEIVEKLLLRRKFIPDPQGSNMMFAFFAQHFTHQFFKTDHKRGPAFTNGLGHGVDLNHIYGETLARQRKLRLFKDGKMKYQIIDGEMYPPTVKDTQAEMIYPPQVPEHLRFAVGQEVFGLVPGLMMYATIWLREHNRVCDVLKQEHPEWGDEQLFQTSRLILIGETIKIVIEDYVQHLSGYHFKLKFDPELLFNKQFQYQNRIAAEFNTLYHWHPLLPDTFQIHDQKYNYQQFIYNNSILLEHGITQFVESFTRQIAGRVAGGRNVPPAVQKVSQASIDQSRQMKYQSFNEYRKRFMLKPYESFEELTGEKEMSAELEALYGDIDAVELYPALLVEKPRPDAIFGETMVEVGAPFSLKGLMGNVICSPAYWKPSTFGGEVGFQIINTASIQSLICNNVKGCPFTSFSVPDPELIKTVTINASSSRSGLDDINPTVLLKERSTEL

SW982 = test: Inhibition of IL-1 beta-induced LOX activity in human SW982 cells assessed as enzyme activity at LD50 treated for 24 hrs prior to incubation with IL-1 beta for 6 hrs (reference value: 100.0%); assay type: cell-based; design: scale not given: the % may be the effect or the level left
Rattus norvegicus [3] = test: In vivo inhibition of COX-2 activity in Complete Freund's adjuvant-induced arthritic albino Wistar rat serum assessed as decrease in peroxidase activity measured as TMPD oxidation rate at 10 mg/kg administered via gavage daily started from day 7 and continued till day 21 after CFA injection by colorimetric analysis; assay type: functional, organism-based; design: dose 10 mg/kg
Rattus norvegicus [4] = test: Reduction in neutrophil infiltration in Complete Freund's adjuvant-induced arthritic albino Wistar rat ankle joint at 10 mg/kg administered via gavage daily started from day 7 and continued till day 21 after CFA injection by hematoxylin-eosin staining based microscopic analysis; assay type: functional, organism-based; design: dose 10 mg/kg

C[C@H]1[C@H](C)CC[C@]2(C)CC[C@]3(C)C(=CC[C@@H]4[C@@]5(C)CC[C@@H](O)[C@](C)(C(=O)O)[C@@H]5CC[C@]43C)[C@H]12 [BOSWELLIC ACID]
CC50 at 24 h [1]: 70.2 µM | Activity [2]: 50.8% | Activity (SW982): 44%

COC(=O)[C@]1(C)[C@@H]2CC[C@]3(C)[C@H](CC=C4[C@@H]5[C@@H](C)[C@H](C)CC[C@]5(C)CC[C@]43C)[C@@]2(C)CC[C@H]1OC(=O)C(C)c1ccc2cc(OC)ccc2c1 (mixture of isomers)
inhibition (Rattus norvegicus [3]): Active

COC(=O)[C@]1(C)[C@@H]2CC[C@]3(C)[C@H](C(=O)C=C4[C@@H]5[C@@H](C)[C@H](C)CC[C@]5(C)CC[C@]43C)[C@@]2(C)CC[C@H]1OC(=O)C(C)c1ccc(CC(C)C)cc1 (mixture of isomers)
inhibition (Rattus norvegicus [3]): Active | inhibition (Rattus norvegicus [4]): Active | CC50 at 24 h [1]: 40.6 µM | Activity [2]: 27.7% | Activity (SW982): 60.2%

COC(=O)[C@]1(C)[C@@H]2CC[C@]3(C)[C@H](C(=O)C=C4[C@@H]5[C@@H](C)[C@H](C)CC[C@]5(C)CC[C@]43C)[C@@]2(C)CC[C@H]1OC(=O)C(C)c1ccc2cc(OC)ccc2c1 (mixture of isomers)
inhibition (Rattus norvegicus [3]): Active

COC(=O)[C@]1(C)[C@@H]2CC[C@]3(C)[C@H](C(=O)C=C4[C@@H]5[C@@H](C)[C@H](C)CC[C@]5(C)CC[C@]43C)[C@@]2(C)CC[C@H]1OC(=O)Cc1c(C)n(C(=O)c2ccc(Cl)cc2)c2ccc(OC)cc12
inhibition (Rattus norvegicus [3]): Active

COC(=O)[C@]1(C)[C@@H]2CC[C@]3(C)[C@H](CC=C4[C@@H]5[C@@H](C)[C@H](C)CC[C@]5(C)CC[C@]43C)[C@@]2(C)CC[C@H]1OC(=O)Cc1c(C)n(C(=O)c2ccc(Cl)cc2)c2ccc(OC)cc12
inhibition (Rattus norvegicus [3]): Active

COC(=O)[C@]1(C)[C@@H]2CC[C@]3(C)[C@H](CC=C4[C@@H]5[C@@H](C)[C@H](C)CC[C@]5(C)CC[C@]43C)[C@@]2(C)CC[C@H]1OC(=O)Cc1ccccc1Nc1c(Cl)cccc1Cl
inhibition (Rattus norvegicus [3]): Active

COC(=O)[C@]1(C)[C@@H]2CC[C@]3(C)[C@H](CC=C4[C@@H]5[C@@H](C)[C@H](C)CC[C@]5(C)CC[C@]43C)[C@@]2(C)CC[C@H]1OC(=O)C(C)c1ccc(CC(C)C)cc1 (mixture of isomers)
inhibition (Rattus norvegicus [3]): Active | inhibition (Rattus norvegicus [4]): Active | CC50 at 24 h [1]: 62.6 µM | Activity [2]: 30.2% | Activity (SW982): 65.8%

CC(C)Cc1ccc(C(C)C(=O)O)cc1 (configuration not stated) [IBUPROFEN]
inhibition (Rattus norvegicus [3]): Active | inhibition (Rattus norvegicus [4]): Active | CC50 at 24 h [1]: 93 µM

COC(=O)[C@]1(C)[C@@H]2CC[C@]3(C)[C@H](C(=O)C=C4[C@@H]5[C@@H](C)[C@H](C)CC[C@]5(C)CC[C@]43C)[C@@]2(C)CC[C@H]1OC(=O)Cc1ccccc1Nc1c(Cl)cccc1Cl
inhibition (Rattus norvegicus [3]): Active

C[C@H]1[C@H](C)CC[C@]2(C)CC[C@]3(C)C(=CC(=O)[C@@H]4[C@@]5(C)CC[C@@H](O)[C@](C)(C(=O)O)[C@@H]5CC[C@]43C)[C@H]12 [11-KETO BOSWELLIC ACID]
inhibition (Rattus norvegicus [3]): Active | inhibition (Rattus norvegicus [4]): Active | CC50 at 24 h [1]: 82 µM | Activity [2]: 27.4% | Activity (SW982): 72.7%
